# In patent publication US5594004A, “Compound with platelet aggregation inhibitor activity” (Meiji Seika Kabushiki Kaisha, priority 1993, dated 1997):
# Counter-ions that a name gives are not always drawn.
# Assays:
# [1] = tested on: human PRP (platelet rich plasma); experiment: Pharmacological test 1: inhibition of ADP-induced platelet aggregation in human PRP; type: cell-based; conditions: ADP 5 μM inducer; for IC50: platelet aggregation; for inhibition at 1 µM: inhibition rate at 10^-6 M
# Protocol: Pharmacological test 1 Inhibition of platelet aggregation
# The effect of the compound according to the present invention on inhibiting the platelet aggregation was examined with human PRP (platelet rich plasma).
# Nine volumes of a blood sample was taken out of the vein of a normal human with a syringe in which one volume of a 3.8% sodium citrate solution was charged. The blood sample was centrifuged at 170×g at room temperature for 10 minutes. The supernatant thus obtained was isolated as PRP. The residual blood sample that PRP had been taken out was centrifuged at 2,700×g for 15 minutes. The supernatant was then taken as platelet poor plasma (PPP).
# Platelet aggregation test was conducted with an aggligometer (PAM-8C; manufactured by MEBANICKS Co., Ltd.). Compounds to be tested were dissolved in a 50% DMSO saline, a 50% methanol saline or physiological saline. The compound and PRP were preincubated for 2 minutes. The ADP (CHRONO-PAR REAGENTS 384 ADP, CHRONO-LOG Corp.) was used as an inducer in the form of a dilution with saline so that the final concentration is 5 μM.
# Anti-platelet aggregation activity was obtained as an inhibition rate to platelet aggregation effect of ADP in the absence of a compound to be tested as follows: [formula] Physiological test 2 Inhibition of fibrinogen bonding to platelet GPIIb/IIIa
# [2] = biological target: T1, human platelet GPIIb/IIIa (Homo sapiens, UniProt P05106+P08514); experiment: Pharmacological test 2: inhibition of fibrinogen bonding to platelet GPIIb/IIIa (solid phase assay, biotinylated fibrinogen); type: binding; conditions: for IC50: fibrinogen bonding to GPIIb/IIIa; for inhibition at 10 µM: inhibition rate at 10^-5 M; for inhibition at 0.1 µM: inhibition rate at 10^-7 M
# T1 construct: platelets collected from healthy adults; from tissue; host or cells: platelets from healthy adults (solubilized with octylglucoside, purified on GRGDSPK-Sepharose)
# Protocol: Inhibiting effect of the compound according to the present invention on the binding of platelet GPIIb/IIIa and fibrinogen was examined with a solid phase human platelet GPIIb/IIIa bonding assay using biotinylated fibrinogen as a ligand. Human platelet GPIIb/IIIa was purified according to the method described by Pytela, R. et al. (Science, 231, 1559-1561 (1986)). […] The same amount of TBS containing 50 mM octylglucoside and 2 mM PMSF was added to the pellet obtained in order to solubilize the membrane protein at 4° C. for 20 minutes. […] The solubilized protein solution was adsorbed on a GRGDSPK-Sepharose column which had been equilibrated with TBS (Buffer A) containing 50 mM Octylglucoside, 1 mM CaCl2 and MgCl2. After the column was washed with Buffer A, the adsorbed GPIIb/IIIa was eluted with Buffer A containing 2 mM GRGDSP peptide. GRGDSPK-Sepharose was prepared by coupling GRGDSPK peptide and CNBr-activated Sepharose 4B (Pharmacia) according to the instruction of the manufacturer. Then, solid phase human platelet GPIIb/IIIa bonding assay was carried out according to the method of Mori et al. […] Purified human platelet GPIIb/IIIa was adjusted in an amount of 2 μg/ml and adsorbed in an amount of 50 μl on a 96 well-microtiter plate at 4° C. overnight. After washing with TBS containing 1 mM CaCl2 and 1 mM MgCl2, 100 μl of 1% bovine serum albumin was added, blocking was conducted at 4° C. overnight. […] After washing with TBS-Tween 20, 50 μl of peroxidase labelled avidin which had been diluted with TBS to 4,000 times was added. The reaction was continued for 20 minutes. […] A 50 μl portion of a 0.1M citrate buffer containing 0.05% NaN3 was added to stop the reaction, and absorbance at 415 nm was measured. The rate of Bonding inhibition was calculated from the following formula: [formula]
# T1 sequence (P08514 32-887 limits assumed): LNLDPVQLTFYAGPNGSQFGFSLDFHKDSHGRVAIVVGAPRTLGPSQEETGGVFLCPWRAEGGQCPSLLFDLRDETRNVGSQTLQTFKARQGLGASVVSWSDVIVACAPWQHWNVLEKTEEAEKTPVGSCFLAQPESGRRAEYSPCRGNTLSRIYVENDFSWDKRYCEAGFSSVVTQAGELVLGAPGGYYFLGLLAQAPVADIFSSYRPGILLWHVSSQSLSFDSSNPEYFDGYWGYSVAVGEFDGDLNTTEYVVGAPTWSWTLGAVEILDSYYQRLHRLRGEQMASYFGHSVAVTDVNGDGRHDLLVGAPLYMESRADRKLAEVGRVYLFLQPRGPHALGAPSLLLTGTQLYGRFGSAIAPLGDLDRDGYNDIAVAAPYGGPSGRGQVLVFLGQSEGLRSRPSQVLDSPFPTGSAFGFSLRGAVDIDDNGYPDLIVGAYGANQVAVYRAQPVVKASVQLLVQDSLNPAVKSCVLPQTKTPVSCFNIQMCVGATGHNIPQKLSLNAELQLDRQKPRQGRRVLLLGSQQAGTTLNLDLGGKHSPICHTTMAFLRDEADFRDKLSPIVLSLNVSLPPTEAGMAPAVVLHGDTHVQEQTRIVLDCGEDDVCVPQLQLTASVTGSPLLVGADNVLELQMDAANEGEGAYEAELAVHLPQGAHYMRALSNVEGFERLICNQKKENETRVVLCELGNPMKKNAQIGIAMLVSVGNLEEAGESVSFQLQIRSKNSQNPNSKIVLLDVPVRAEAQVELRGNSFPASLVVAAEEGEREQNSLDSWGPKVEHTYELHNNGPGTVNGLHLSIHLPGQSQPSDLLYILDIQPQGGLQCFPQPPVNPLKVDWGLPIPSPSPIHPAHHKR
# T1 sequence (P08514 891-1039 limits assumed): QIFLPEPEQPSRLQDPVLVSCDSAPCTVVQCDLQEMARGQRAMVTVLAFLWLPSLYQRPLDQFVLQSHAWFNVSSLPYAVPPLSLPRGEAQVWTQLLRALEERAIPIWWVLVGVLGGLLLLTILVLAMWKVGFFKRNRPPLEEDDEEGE
# T1 sequence (P05106 27-788): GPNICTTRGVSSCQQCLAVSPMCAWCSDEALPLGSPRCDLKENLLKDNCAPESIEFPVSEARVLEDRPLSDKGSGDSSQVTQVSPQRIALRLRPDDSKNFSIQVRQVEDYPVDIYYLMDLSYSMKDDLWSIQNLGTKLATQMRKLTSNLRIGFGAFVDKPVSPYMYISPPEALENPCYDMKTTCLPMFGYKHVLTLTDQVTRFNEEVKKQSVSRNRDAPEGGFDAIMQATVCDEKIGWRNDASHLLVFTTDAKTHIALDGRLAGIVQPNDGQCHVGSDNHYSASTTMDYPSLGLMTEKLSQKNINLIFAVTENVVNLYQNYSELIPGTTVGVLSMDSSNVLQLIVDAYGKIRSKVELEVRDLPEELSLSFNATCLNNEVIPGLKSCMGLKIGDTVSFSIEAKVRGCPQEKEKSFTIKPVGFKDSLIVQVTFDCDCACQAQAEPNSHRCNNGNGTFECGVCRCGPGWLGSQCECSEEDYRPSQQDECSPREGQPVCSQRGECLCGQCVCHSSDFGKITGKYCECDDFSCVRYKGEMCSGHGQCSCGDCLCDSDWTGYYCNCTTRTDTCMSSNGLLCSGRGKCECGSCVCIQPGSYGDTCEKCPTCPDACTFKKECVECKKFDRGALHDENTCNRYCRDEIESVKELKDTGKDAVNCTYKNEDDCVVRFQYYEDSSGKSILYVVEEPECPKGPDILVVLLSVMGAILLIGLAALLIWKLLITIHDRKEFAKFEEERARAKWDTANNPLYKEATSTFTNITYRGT
smiles,measurement,setting,value
"Cc1c(C(=O)NCC(=O)c2ccc(OCC(=O)O)c(OCC(=O)O)c2)sc2c1CNCC2 [Example 27, [[4-[[[(3-methyl-4,5,6,7-tetrahydrothieno[3.2-c]pyridin-2-yl)carbonyl]amino]acetyl]-o-phenylene]dioxy]diacetic acid trifluoroacetate]",IC50,"[1]; Homo sapiens, Platelet",2.5 µM
same,IC50,[2],9.5 µM
"O=C(O)COc1ccc(C(=O)CNC(=O)c2cc3c(s2)CCNC3)cc1OCC(=O)O [Example 18, [[4-[[[(4,5,6,7-tetrahydrothieno [3,2-c]pyridin-2-yl]carbonyl]amino]acetyl]-o-phenylene]dioxy]diacetic acid trifluoroacetate]",IC50,"[1]; Homo sapiens, Platelet",0.14 µM
same,IC50,[2],1.7 µM
"O=C(O)CCc1ccc(C(=O)CNC(=O)c2cc3c(s2)CCNC3)cc1 [Example 20, 3-[4-[[(4,5,6,7-tetrahydrothieno[3,2-c]pyridin-2-yl)carbonyl]aminoacetyl]phenyl]propionic acid trifluoroacetate]",IC50,[2],34 µM
"CN(CC(=O)c1ccc(OCC(=O)O)c(OCC(=O)O)c1)C(=O)c1cc2c(s1)CCNC2 [Example 19, [[4-[[[(4,5,6,7-tetrahydrothieno[3,2-c]pyridin-2-yl)carbonyl]-N-methylamino]acetyl]-o-phenylene]dioxy]diacetic acid trifluoroacetate]",IC50,"[1]; Homo sapiens, Platelet",0.55 µM
same,IC50,[2],3.6 µM
"NCC1CCC(c2ncc(-c3ccc(OCC(=O)O)c(OCC(=O)O)c3)o2)CC1 (centres unmarked) [Example 4, 2-(4-aminomethylcyclohexyl)-5-(3,4-dicarboxymethoxy)phenyloxazole]",inhibition at 1 µM,[1]; Platelet,85%
same,inhibition at 10 µM,[2],73%
"O=C(O)COc1ccc(C(=O)CNC(=O)c2cc3c(s2)CCNC3)cc1 [Example 22, 4-[[(4,5,6,7-tetrahydrothieno[3,2-c]pyridin-2-yl)carbonyl]aminoacetyl]phenoxyacetic acid trifluoroacetate]",IC50,"[1]; Homo sapiens, Platelet",1.2 µM
same,IC50,[2],> 10 µM
"O=C(O)COc1ccc(C(=O)CNC(=O)CCCC2CCNCC2)cc1OCC(=O)O [Example 36, [[4-[[N-[4-(piperidin-4-yl)butyryl]amino]acetyl]-o-phenylene]dioxy]diaceticacid trifluoroacetate]",IC50,"[1]; Homo sapiens, Platelet",9 µM
"O=C(O)COc1ccc(C(O)CNC(=O)c2cc3c(s2)CCNC3)nc1 (centres unmarked) [Example 21, 2-[1-hydroxy-2-[(4,5,6,7-tetrahydrothieno[3,2-c]pyridin-2-yl)carbonylamino]ethyl]pyridin-5-yloxyacetic acid trifluoroacetate]",IC50,"[1]; Homo sapiens, Platelet",0.5 µM
same,IC50,[2],10 µM
"CN(CC(=O)c1ccc(OCC(=O)O)c(OCC(=O)O)c1)C(=O)[C@H]1CC[C@H](C(=N)N)CC1 [Example 58, [[4-[[[trans-4-amidinocyclohexyl]carbonyl-N-methylamino]acetyl]-o-phenylene]dioxy]diacetic acid trifluoroacetate]",IC50,"[1]; Homo sapiens, Platelet",0.14 µM
"CN(CC(=O)c1ccc(OCC(=O)O)c(OCC(=O)O)c1)C(=O)CCC1CCNCC1 [Example 9, [[4-[[N-[3-(piperidin-4-yl)propionyl]-N-methylamino]acetyl]-o-phenylene]dioxy]diacetic acid trifluoroacetate]",inhibition at 1 µM,[1]; Platelet,79%
same,inhibition at 0.1 µM,[2],73%
"O=C(O)COc1ccc(-c2cnc(CCC3CCNCC3)o2)cc1OCC(=O)O [Example 43, [[4-[2-[2-(piperidin-4-yl)ethyl]oxazol-5-yl]-o-phenylene]dioxy]diacetic acid 1/2 sulfate]",IC50,"[1]; Homo sapiens, Platelet",2.8 µM
"NC[C@H]1CC[C@H](C(=O)NCC(=O)c2ccc(OCC(=O)O)c(OCC(=O)O)c2)CC1 [Example 1, [[4-[[[trans-4-(aminomethyl)cyclohexyl]carbonylamino]acetyl]-o-phenylene]dioxy]diacetic acid trifluoroacetate]",inhibition at 1 µM,[1]; Platelet,68%
same,inhibition at 10 µM,[2],51%
"CC(=O)N(CCc1ccc(OCC(=O)O)c(OCC(=O)O)c1)Cc1cc2c(s1)CCNC2 [Example 41, [[4-[2-[N-[(4,5,6,7-tetrahydrothieno[3,2-c]pyridin-2-yl)methyl]-N-acetylamino]ethyl]-o-phenylene]dioxy]diacetic acid trifluoroacetate]",IC50,"[1]; Homo sapiens, Platelet",3.3 µM
"NC[C@H]1CC[C@H](C(=O)NCCc2ccc(OCC(=O)O)c(OCC(=O)O)c2)CC1 [Example 7, [[4-[[2-[trans-4-(aminomethyl)cyclohexyl]carbonylamino]ethyl]-o-phenylene]dioxy]diacetic acid trifluoroacetate]",inhibition at 1 µM,[1]; Platelet,48%
same,inhibition at 10 µM,[2],27%
"O=C(O)COc1ccc(-c2nc(C(=O)c3cc4c(s3)CCNC4)cs2)cc1 [Example 47, 4-[[4-(4,5,6,7-tetrahydrothieno[3,2-c]pyridin-2-yl)carbonyl]thiazol-2-yl]phenoxyacetic acid trifluoroacetate]",IC50,"[1]; Homo sapiens, Platelet",6.4 µM
"CCOC(=O)COc1ccc(C(=O)CNC(=O)c2cc3c(s2)CCNC3)cc1OCC(=O)OCC [Example 34, Diethyl [[4-[[[(4,5,6,7-tetrahydrothieno[3,2-c]pyridin2-yl)carbonyl]amino]acetyl]-o-phenylene]dioxy]diacetate trifluoroacetate]",IC50,"[1]; Homo sapiens, Platelet",0.93 µM
"O=C(COc1ccc(C(=O)CNC(=O)c2cc3c(s2)CCNC3)cc1OCC(=O)OC1CCCCC1)OC1CCCCC1 [Example 57, Dicyclohexyl [[4-[[[(4,5,6,7-tetrahydrothieno[3,2-c]pyridin-2-yl)carbonyl]amino]acetyl]-o-phenylene]dioxy]diacetate]",IC50,"[1]; Homo sapiens, Platelet",3.2 µM
"O=C(O)COc1ccc(C(=O)CNC(=O)CCC2CCNCC2)cc1OCC(=O)O [Example 10, [[4-[[N-[3-(piperidin-4-yl)propionyl]amino]acetyl]-o-phenylene]dioxy]diacetic acid trifluoroaceetate]",IC50,"[1]; Homo sapiens, Platelet",0.35 µM
same,inhibition at 1 µM,[1]; Platelet,85%
same,inhibition at 0.1 µM,[2],82%
"O=C(O)COc1ccc(CCNC(=O)c2cc3c(s2)CCNC3)cc1 [Example 39, 4-[2-[[(4,5,6,7-tetrahydrothieno[3,2-c]pyridin-2-yl)carbonyl]amino]ethyl]phenoxyacetic acid trifluoroacetate]",IC50,"[1]; Homo sapiens, Platelet",0.26 µM
"O=C(O)COc1ccc(C(=O)NCC(=O)c2cc3c(s2)CCNC3)cc1OCC(=O)O [Example 32, [[4-[N-[(4,5,6,7-tetrahydrothieno[3,2-c]pyridin-2-yl)carbonyl]methyl]carbamoyl]-o-phenylene]dioxy]diacetic acid trifluoroacetate]",IC50,"[1]; Homo sapiens, Platelet",0.48 µM
"O=C(O)COc1ccc(C(=O)CNC(=O)c2cc3c(s2)CCNC3)cc1OCC(=O)O [Example 29, [[4-[[[(4,5,6,7-tetrahydrothieno[3.2-c]pyridin-2-yl)carbonyl]amino]acetyl]-o-phenylene]dioxy]diacetic acid trifluoroacetate]",IC50,[1],0.23 µM
